Measured values from US20230104936A1, “TRPML MODULATORS” (Casma Therapeutics, Inc., priority 2019, published 2023).

Test system: TFEB
Assay: TFEB nuclear translocation assay, HeLa wt cells
Format: cell-based
Details: 2 hrs compound treatment, Table 1 does not say HeLa wt or TRPML1 KO
Procedure, shortened: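 HeLa wt cells were treated with compound for 2 hrs at 37° C, then fixed in 4% PFA and immunostained for TFEB with an Alexa 488 secondary and Hoechst nuclear counterstain. Automated epifluorescence imaging at ×20 gave the ratio of nuclear TFEB intensity to a perinuclear ring region, from which AC50 was derived.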

SMILES: CN(C)S(=O)(=O)c1ccc(S(=O)(=O)Nc2cccc(Cl)c2N2CCOCC2)cc1 [Compound A-311, N4-[3-chloro-2-(morpholin-4-yl)phenyl]-N1,N1-dimethylbenzene-1,4-disulfonamide]
- AC50 (Homo sapiens, HeLa, 2 h): 2010 to 8000 nM

SMILES: CN(C)S(=O)(=O)c1ccc(S(=O)(=O)Nc2ccccc2N2CCC(C)(c3ccc(F)cc3Cl)CC2)cc1 [Compound A-205, N4-{2-[4-(2-chloro-4-fluorophenyl)-4-methylpiperidin-1-yl]phenyl}-N1,N1-dimethylbenzene-1,4-disulfonamide]
- AC50 (Homo sapiens, HeLa, 2 h): ≤ 2000 nM

SMILES: CN(C)S(=O)(=O)c1ccc(S(=O)(=O)Nc2ccccc2N2CCC(C(C)(F)F)CC2)cc1 [Compound A-506, N4-{2-[4-(1,1-difluoroethyl)piperidin-1-yl]phenyl}-N1,N1-dimethylbenzene-1,4-disulfonamide]
- AC50 (Homo sapiens, HeLa, 2 h): ≤ 2000 nM

SMILES: CN(C)S(=O)(=O)c1ccc(S(=O)(=O)Nc2ccccc2N2CCC(C3CC3(F)F)CC2)cc1 (stereo not drawn) [Compound A-479, N4-{2-[4-(2,2-difluorocyclopropyl)piperidin-1-yl]phenyl}-N1,N1-dimethylbenzene-1,4-disulfonamide]
- AC50 (Homo sapiens, HeLa, 2 h): ≤ 2000 nM

SMILES: CN(C)S(=O)(=O)c1ccc(S(=O)(=O)Nc2ccccc2N2CC3CCC2CN3c2ccc(Cl)cc2F)cc1 (stereo not drawn) [Compound A-26, N4-{2-[5-(4-chloro-2-fluorophenyl)-2,5-diazabicyclo[2.2.2]octan-2-yl]phenyl}-N1,N1-dimethylbenzene-1,4-disulfonamide]
- AC50 (Homo sapiens, HeLa, 2 h): ≤ 2000 nM

SMILES: COc1ccc(S(=O)(=O)Nc2ccccc2N2CCC(c3ccc(Cl)cc3F)CC2)cc1 [Compound A-99, N-{2-[4-(4-chloro-2-fluorophenyl)piperidin-1-yl]phenyl}-4-methoxybenzene-1-sulfonamide]
- AC50 (Homo sapiens, HeLa, 2 h): ≤ 2000 nM

SMILES: CN(C)S(=N)(=O)c1ccc(S(=O)(=O)Nc2ccccc2N2CCN(C(=O)C(C)(C)C)CC2)cc1 (stereo not drawn) [Compound A-321, 4-({2-[4-(2,2-dimethylpropanoyl)piperazin-1-yl]phenyl}sulfamoyl)-N,N-dimethylbenzene-1-sulfonoimidamide]
- AC50 (Homo sapiens, HeLa, 2 h): ≥ 10000 nM

SMILES: CC(c1ccc(S(=O)(=O)Nc2ccccc2N2CCC(CN3C[C@@H](C)O[C@@H](C)C3)CC2)cc1)C1CC1 (stereo partly drawn) [Compound A-779, 4-(1-cyclopropylethyl)-N-[2-(4-{[(2R,6S)-2,6-dimethylmorpholin-4-yl]methyl}piperidin-1-yl)phenyl]benzene-1-sulfonamide]
- AC50 (Homo sapiens, HeLa, 2 h): ≤ 2000 nM

SMILES: CC(C)CN1CCN(c2ccccc2NS(=O)(=O)c2ccc(S(=O)(=O)N(C)C)cc2)CCC1=O [Compound A-526, N1,N1-dimethyl-N4-{2-[4-(2-methylpropyl)-5-oxo-1,4-diazepan-1-yl]phenyl}benzene-1,4-disulfonamide]
- AC50 (Homo sapiens, HeLa, 2 h): 2010 to 8000 nM

SMILES: COC(C)(C)c1cccc(S(=O)(=O)Nc2ccccc2N2CCC3(CC2)COC(C)(C)C3)c1 [Compound A-634, N-(2-{3,3-dimethyl-2-oxa-8-azaspiro[4.5]decan-8-yl}phenyl)-3-(2-methoxypropan-2-yl)benzene-1-sulfonamide]
- AC50 (Homo sapiens, HeLa, 2 h): 2010 to 8000 nM

SMILES: CN(C)S(=O)(=O)c1ccc(S(=O)(=O)Nc2ccccc2N2CCC(CO)(c3ccc(F)cc3F)CC2)cc1 [Compound A-161, N4-{2-[4-(2,4-difluorophenyl)-4-(hydroxymethyl)piperidin-1-yl]phenyl}-N1,N1-dimethylbenzene-1,4-disulfonamide]
- AC50 (Homo sapiens, HeLa, 2 h): 2010 to 8000 nM

SMILES: COc1ccc(S(=O)(=O)Nc2ccccc2N2CCC(c3ncc(Cl)cc3F)CC2)cc1 [Compound A-147, N-{2-[4-(5-chloro-3-fluoropyridin-2-yl)piperidin-1-yl]phenyl}-4-methoxybenzene-1-sulfonamide]
- AC50 (Homo sapiens, HeLa, 2 h): 2010 to 8000 nM

SMILES: CC1(C)CC2(CCN(c3ccccc3NS(=O)(=O)c3ccc(C4CC4)s3)CC2)CO1 [Compound A-674, 5-cyclopropyl-N-(2-{3,3-dimethyl-2-oxa-8-azaspiro[4.5]decan-8-yl}phenyl)thiophene-2-sulfonamide]
- AC50 (Homo sapiens, HeLa, 2 h): ≤ 2000 nM

SMILES: CN(C)S(=O)(=O)c1ccc(S(=O)(=O)n2ccn(C3CCN(c4ccc(Cl)cc4F)CC3)c2=O)cc1 [Compound A-67, 4-((3-(1-(4-chloro-2-fluorophenyl)piperidin-4-yl)-2-oxo-2,3-dihydro-1H-imidazol-1-yl)sulfonyl)-N,N-dimethylbenzenesulfonamide]
- AC50 (Homo sapiens, HeLa, 2 h): ≥ 10000 nM

SMILES: CN1CCc2ccccc2C12CCN(c1ccccc1NS(=O)(=O)c1ccc(S(C)(=O)=O)cc1)CC2 [Compound A-441, N-(2-(2-methyl-3,4-dihydro-2H-spiro[isoquinoline-1,4′-piperidin]-1′-yl)phenyl)-4-(methylsulfonyl)benzenesulfonamide]
- AC50 (Homo sapiens, HeLa, 2 h): 2010 to 8000 nM

SMILES: COc1ccc(N2CCOCC2)c(NS(=O)(=O)c2ccc3c(c2)CCC3)c1 [Compound A-521, N-[5-methoxy-2-(morpholin-4-yl)phenyl]-2,3-dihydro-1H-indene-5-sulfonamide]
- AC50 (Homo sapiens, HeLa, 2 h): ≤ 2000 nM

SMILES: Cc1noc(NS(=O)(=O)c2ccc(S(=O)(=O)N(C)C)cc2)c1C1CCN(c2ccc(Cl)cc2F)CC1 [Compound A-105, N4-{4-[1-(4-chloro-2-fluorophenyl)piperidin-4-yl]-3-methyl-1,2-oxazol-5-yl}-N1,N1-dimethylbenzene-1,4-disulfonamide]
- AC50 (Homo sapiens, HeLa, 2 h): ≥ 10000 nM

SMILES: CN1CCC2(CCN(c3ccccc3NS(=O)(=O)c3ccc(S(=O)(=O)N(C)C)cc3)CC2)C1 [Compound A-293, N1,N1-dimethyl-N4-(2-{2-methyl-2,8-diazaspiro[4.5]decan-8-yl}phenyl)benzene-1,4-disulfonamide]
- AC50 (Homo sapiens, HeLa, 2 h): ≥ 10000 nM

SMILES: CN(C)S(=O)(=O)c1ccc(S(=O)(=O)Nc2ccccc2N2CCN(c3ncccc3F)CC2)cc1 [Compound A-51, N4-{2-[4-(3-fluoropyridin-2-yl)piperazin-1-yl]phenyl}-N1,N1-dimethylbenzene-1,4-disulfonamide]
- AC50 (Homo sapiens, HeLa, 2 h): 2010 to 8000 nM

SMILES: COCC1(C)CCN(c2ccccc2NS(=O)(=O)c2ccc3c(c2)CC(C)(C)C3=O)CC1 [Compound A-639, N-{2-[4-(methoxymethyl)-4-methylpiperidin-1-yl]phenyl}-2,2-dimethyl-1-oxo-2,3-dihydro-1H-indene-5-sulfonamide]
- AC50 (Homo sapiens, HeLa, 2 h): ≥ 10000 nM

SMILES: COCC1(C)CCN(c2ccccc2NS(=O)(=O)c2ccc(C(C)C)cc2)CC1 [Compound A-706, N-{2-[4-(methoxymethyl)-4-methylpiperidin-1-yl]phenyl}-4-(propan-2-yl)benzene-1-sulfonamide]
- AC50 (Homo sapiens, HeLa, 2 h): ≤ 2000 nM

SMILES: CN1CCC(N(C)S(=O)(=O)c2ccc(NC(=O)COc3ccccc3-c3ccccc3)cc2)CC1 [Compound A-404, 2-{[1,1′-biphenyl]-2-yloxy}-N-{4-[methyl(1-methylpiperidin-4-yl)sulfamoyl]phenyl}acetamide]
- AC50 (Homo sapiens, HeLa, 2 h): 2010 to 8000 nM

SMILES: CC1(C)Cc2cc(S(=O)(=O)Nc3cccc(F)c3N3CCC(CN4C5COCC4C5)CC3)ccc2O1 [Compound A-875, N-{3-fluoro-2-[4-({3-oxa-6-azabicyclo[3.1.1]heptan-6-yl}methyl)piperidin-1-yl]phenyl}-2,2-dimethyl-2,3-dihydro-1-benzofuran-5-sulfonamide]
- AC50 (Homo sapiens, HeLa, 2 h): ≥ 10000 nM

SMILES: COC1(C(=O)N2CCN(c3ccccc3NS(=O)(=O)c3ccc(S(=O)(=O)N(C)C)cc3)CC2)CCCC1 [Compound A-444, N4-{2-[4-(1-methoxycyclopentanecarbonyl)piperazin-1-yl]phenyl}-N1,N1-dimethylbenzene-1,4-disulfonamide]
- AC50 (Homo sapiens, HeLa, 2 h): ≤ 2000 nM

SMILES: CN(C)S(=O)(=O)c1ccc(S(=O)(=O)Nc2ccccc2N2CCN(C(=O)C3(C)CC(F)(F)C3)CC2)cc1 [Compound A-478, N4-{2-[4-(3,3-difluoro-1-methylcyclobutanecarbonyl)piperazin-1-yl]phenyl}-N1,N1-dimethylbenzene-1,4-disulfonamide]
- AC50 (Homo sapiens, HeLa, 2 h): 2010 to 8000 nM

SMILES: Cc1ccc(N2CCOCC2)c(NS(=O)(=O)Cc2ccccc2)c1 [Compound A-628, N-[5-methyl-2-(morpholin-4-yl)phenyl]-1-phenylmethanesulfonamide]
- AC50 (Homo sapiens, HeLa, 2 h): 2010 to 8000 nM

SMILES: CC(C)(C)C(=O)N1CCN(c2ccccc2NS(=O)(=O)Cc2ccccc2)CC1 [Compound A-410, N-{2-[4-(2,2-dimethylpropanoyl)piperazin-1-yl]phenyl}-1-phenylmethanesulfonamide]
- AC50 (Homo sapiens, HeLa, 2 h): 2010 to 8000 nM

SMILES: CC(c1cccc(F)c1N1CCCCC1)S(=O)(=O)c1ccc(S(=N)(=O)C(F)F)cc1 (single isomer, unassigned) [Compound A-937, (difluoromethyl)(4-((1-(3-fluoro-2-(piperidin-1-yl)phenyl)ethyl)sulfonyl)phenyl)(imino)-l6-sulfanone]
- AC50: 2010 to 8000 nM

SMILES: CC(c1cccc(F)c1N1CCC(CN2CCC(F)(F)CC2)CC1)S(=O)(=O)c1ccc(C(F)F)cc1 (single isomer, unassigned) [Compound A-998, 1-((1-(2-(1-((4-(difluoromethyl)phenyl)sulfonyl)ethyl)-6-fluorophenyl)piperidin-4-yl)methyl)-4,4-difluoropiperidine]
- AC50: 2010 to 8000 nM

SMILES: COc1ccc(S(=O)(=O)Nc2ccc3c(cnn3C)c2N2CCN(c3ncc(Cl)cc3F)CC2)cc1 [Compound A-140, N-{4-[4-(5-chloro-3-fluoropyridin-2-yl)piperazin-1-yl]-1-methyl-1H-indazol-5-yl}-4-methoxybenzene-1-sulfonamide]
- AC50 (Homo sapiens, HeLa, 2 h): ≤ 2000 nM

SMILES: Cc1ccc(S(=O)(=O)Nc2ccccc2N2[C@@H]3CC[C@H]2C[C@@H](c2ccccc2F)C3)cc1 [Compound A-120, N-{2-[(1R,3R,5S)-3-(2-fluorophenyl)-8-azabicyclo[3.2.1]octan-8-yl]phenyl}-4-methylbenzene-1-sulfonamide]
- AC50 (Homo sapiens, HeLa, 2 h): ≤ 2000 nM

SMILES: CN(C)S(=O)(=O)c1ccc(S(=O)(=O)Nc2ccccc2N2CCCC3(CCCO3)C2)cc1 (stereo not drawn) [Compound A-497, N1,N1-dimethyl-N4-(2-{1-oxa-7-azaspiro[4.5]decan-7-yl}phenyl)benzene-1,4-disulfonamide]
- AC50 (Homo sapiens, HeLa, 2 h): ≤ 2000 nM

SMILES: NS(=O)(=O)c1ccc(S(=O)(=O)Nc2ccccc2N2CCC(c3ccc(Cl)cc3F)CC2)cc1 [Compound A-482, N1-{2-[4-(4-chloro-2-fluorophenyl)piperidin-1-yl]phenyl}benzene-1,4-disulfonamide]
- AC50 (Homo sapiens, HeLa, 2 h): 2010 to 8000 nM
